Results from patent publication US20170190671A1, “BIS(ARYL)CATECHOL DERIVATIVES AS HERBICIDES” (E I DU PONT DE NEMOURS AND COMPANY, priority 2014, published 2017).

Key:
Assay in all cases: Test E preemergence
Format in all cases: in vivo
Conditions in all cases: scale 0 to 100
[1] = system: green foxtail (Setaria viridis)
Source text: (§1) Seeds of plant species selected from corn (Zea mays), soybean (Glycine max), velvetleaf (Abutilon theophrasti), cocklebur (common cocklebur, Xanthium strumarium), lambsquarters (Chenopodium album), wild poinsettia (Euphorbia heterophylla), palmer pigweed (Amaranthus palmeri), waterhemp (common waterhemp, Amaranthus rudis), surinam grass (Brachiaria decumbens), large (Lg) crabgrass (Digitaria sanguinalis), Brazilian crabgrass (Digitaria horizontalis), fall panicum (Panicum dichotomiflorum), giant foxtail (Setaria faberii), green foxtail (Setaria viridis), goosegrass (Eleusine indica), johnsongrass (Sorghum halepense), ragweed (common ragweed, Ambrosia elatior), barnyardgrass (Echinochloa crus-galli), sandbur (southern sandbur, Cenchrus echinatus), arrowleaf sida (Sida rhombifolia), Italian ryegrass (Lolium multiflorum), dayflower (Virginia (VA) dayflower, Commelina virginica), field bindweed (Convolvulus arvensis), morningglory (Ipomoea coccinea), nightshade (eastern black nightshade, Solanum ptycanthum), kochia (Kochia scoparia), yellow nutsedge (Cyperus esculentus), horseweed (Conyza canadensis), and hairy beggarticks (Bidens pilosa), were planted into a silt loam soil and treated preemergence with test chemicals formulated in a non-phytotoxic solvent mixture which included a surfactant.
(§2) At the same time, plants from these crop and weed species and also waterhemp_RES1, (ALS & Triazine resistant common waterhemp, Amaranthus rudis), and waterhemp_RES2, (ALS & HPPD resistant common waterhemp, Amaranthus rudis) were planted in pots containing Redi-Earth® planting medium (Scotts Company, 14111 Scottslawn Road, Marysville, Ohio 43041) comprising spaghnum peat moss, vermiculite, wetting agent and starter nutrients were treated with postemergence applications of test chemicals formulated in the same manner. Plants ranged in height from 2 to 18 cm for postemergence treatments (1- to 4-leaf stage). Treated plants and controls were maintained in a greenhouse for 14 to 21 days, after which time all species were compared to controls and visually evaluated. Plant response ratings, summarized in Table E, are based on a scale of 0 to 100 where 0 is no effect and 100 is complete control. A dash (-) response means no test result.

[2] = system: field bindweed (Convolvulus arvensis)
Source text: as §1, §2

[3] = system: yellow nutsedge (Cyperus esculentus)
Source text: as §1, §2

[4] = system: lambsquarters (Chenopodium album)
Source text: as §1, §2

[5] = system: barnyardgrass (Echinochloa crus-galli)
Source text: as §1, §2

[6] = system: dayflower (Virginia (VA) dayflower, Commelina virginica)
Source text: as §1, §2

[7] = system: waterhemp (common waterhemp, Amaranthus rudis)
Source text: as §1, §2

soybean (Glycine max) = system: soybean (Glycine max)
Source text: as §1, §2

[8] = system: nightshade (eastern black nightshade, Solanum ptycanthum)
Source text: as §1, §2

[9] = system: large (Lg) crabgrass (Digitaria sanguinalis)
Source text: as §1, §2

[10] = system: arrowleaf sida (Sida rhombifolia)
Source text: as §1, §2

[11] = system: morningglory (Ipomoea coccinea)
Source text: as §1, §2

[12] = system: ragweed (common ragweed, Ambrosia elatior)
Source text: as §1, §2

[13] = system: palmer pigweed (Amaranthus palmeri)
Source text: as §1, §2

corn (Zea mays) = system: corn (Zea mays)
Source text: as §1, §2

[14] = system: giant foxtail (Setaria faberii)
Source text: as §1, §2

[15] = system: velvetleaf (Abutilon theophrasti)
Source text: as §1, §2

[16] = system: Surinam grass (Brachiaria decumbens)
Source text: as §1, §2

[17] = system: sandbur (southern sandbur, Cenchrus echinatus)
Source text: as §1, §2

[18] = system: goosegrass (Eleusine indica)
Source text: as §1, §2

[19] = system: hairy beggarticks (Bidens pilosa)
Source text: as §1, §2

SMILES: N#Cc1cccc(Oc2ncc(Cl)cn2)c1Oc1ncc(C(F)(F)F)cn1 [Compound 38, 3-[(5-chloro-2-pyrimidinyl)oxy]-2-[[5-(trifluoromethyl)-2-pyrimidinyl]oxy]-benzonitrile]
- Plant response rating, Foxtail, Green ([1]; 16 g ai/ha): 5
- Plant response rating, Foxtail, Green ([1]; 31 g ai/ha): 30
- Plant response rating, Foxtail, Green ([1]; 62 g ai/ha): 100
- Plant response rating, Foxtail, Green ([1]; 125 g ai/ha): 100
- Plant response rating, Field Bindweed ([2]; 16 g ai/ha): 35
- Plant response rating, Field Bindweed ([2]; 31 g ai/ha): 70
- Plant response rating, Field Bindweed ([2]; 62 g ai/ha): 95
- Plant response rating, Field Bindweed ([2]; 125 g ai/ha): 65
- Plant response rating, Nutsedge, Yellow ([3]; 16 g ai/ha): 0
- Plant response rating, Nutsedge, Yellow ([3]; 31 g ai/ha): 0
- Plant response rating, Nutsedge, Yellow ([3]; 62 g ai/ha): 20
- Plant response rating, Nutsedge, Yellow ([3]; 125 g ai/ha): 65
- Plant response rating, Lambsquarters ([4]; 16 g ai/ha): 98
- Plant response rating, Lambsquarters ([4]; 31 g ai/ha): 100
- Plant response rating, Lambsquarters ([4]; 62 g ai/ha): 100
- Plant response rating, Lambsquarters ([4]; 125 g ai/ha): 100
- Plant response rating, Barnyardgrass ([5]; 16 g ai/ha): 0
- Plant response rating, Barnyardgrass ([5]; 31 g ai/ha): 10
- Plant response rating, Barnyardgrass ([5]; 62 g ai/ha): 70
- Plant response rating, Barnyardgrass ([5]; 125 g ai/ha): 90
- Plant response rating, Dayflower, VA ([6]; 16 g ai/ha): 0
- Plant response rating, Dayflower, VA ([6]; 31 g ai/ha): 0
- Plant response rating, Dayflower, VA ([6]; 62 g ai/ha): 20
- Plant response rating, Dayflower, VA ([6]; 125 g ai/ha): 60
- Plant response rating, Waterhemp ([7]; 16 g ai/ha): 50
- Plant response rating, Waterhemp ([7]; 31 g ai/ha): 98
- Plant response rating, Waterhemp ([7]; 62 g ai/ha): 98
- Plant response rating, Waterhemp ([7]; 125 g ai/ha): 100
- Plant response rating, Soybean (soybean (Glycine max); 16 g ai/ha): 15
- Plant response rating, Soybean (soybean (Glycine max); 31 g ai/ha): 15
- Plant response rating, Soybean (soybean (Glycine max); 62 g ai/ha): 95
- Plant response rating, Soybean (soybean (Glycine max); 125 g ai/ha): 80
- Plant response rating, Nightshade ([8]; 16 g ai/ha): 5
- Plant response rating, Nightshade ([8]; 31 g ai/ha): 95
- Plant response rating, Nightshade ([8]; 62 g ai/ha): 98
- Plant response rating, Nightshade ([8]; 125 g ai/ha): 100
- Plant response rating, Crabgrass, Large ([9]; 16 g ai/ha): 50
- Plant response rating, Crabgrass, Large ([9]; 31 g ai/ha): 75
- Plant response rating, Crabgrass, Large ([9]; 62 g ai/ha): 100
- Plant response rating, Crabgrass, Large ([9]; 125 g ai/ha): 100
- Plant response rating, Arrowleaf Sida ([10]; 16 g ai/ha): 60
- Plant response rating, Arrowleaf Sida ([10]; 31 g ai/ha): 50
- Plant response rating, Arrowleaf Sida ([10]; 62 g ai/ha): 80
- Plant response rating, Arrowleaf Sida ([10]; 125 g ai/ha): 100
- Plant response rating, Morningglory ([11]; 16 g ai/ha): 0
- Plant response rating, Morningglory ([11]; 31 g ai/ha): 0
- Plant response rating, Morningglory ([11]; 62 g ai/ha): 50
- Plant response rating, Morningglory ([11]; 125 g ai/ha): 35
- Plant response rating, Ragweed ([12]; 16 g ai/ha): 40
- Plant response rating, Ragweed ([12]; 31 g ai/ha): 40
- Plant response rating, Ragweed ([12]; 62 g ai/ha): 60
- Plant response rating, Ragweed ([12]; 125 g ai/ha): 70
- Plant response rating, Pigweed, Palmer ([13]; 16 g ai/ha): 60
- Plant response rating, Pigweed, Palmer ([13]; 31 g ai/ha): 100
- Plant response rating, Pigweed, Palmer ([13]; 62 g ai/ha): 98
- Plant response rating, Pigweed, Palmer ([13]; 125 g ai/ha): 100
- Plant response rating, Corn (corn (Zea mays); 16 g ai/ha): 0
- Plant response rating, Corn (corn (Zea mays); 31 g ai/ha): 0
- Plant response rating, Corn (corn (Zea mays); 62 g ai/ha): 35
- Plant response rating, Corn (corn (Zea mays); 125 g ai/ha): 50
- Plant response rating, Foxtail, Giant ([14]; 16 g ai/ha): 5
- Plant response rating, Foxtail, Giant ([14]; 31 g ai/ha): 70
- Plant response rating, Foxtail, Giant ([14]; 62 g ai/ha): 100
- Plant response rating, Foxtail, Giant ([14]; 125 g ai/ha): 100
- Plant response rating, Velvetleaf ([15]; 16 g ai/ha): 20
- Plant response rating, Velvetleaf ([15]; 31 g ai/ha): 65
- Plant response rating, Velvetleaf ([15]; 62 g ai/ha): 85
- Plant response rating, Velvetleaf ([15]; 125 g ai/ha): 100
- Plant response rating, Surinam Grass ([16]; 16 g ai/ha): 0
- Plant response rating, Surinam Grass ([16]; 31 g ai/ha): 0
- Plant response rating, Surinam Grass ([16]; 62 g ai/ha): 15
- Plant response rating, Surinam Grass ([16]; 125 g ai/ha): 40
- Plant response rating, Sandbur ([17]; 16 g ai/ha): 0
- Plant response rating, Sandbur ([17]; 31 g ai/ha): 0
- Plant response rating, Sandbur ([17]; 62 g ai/ha): 35
- Plant response rating, Sandbur ([17]; 125 g ai/ha): 80
- Plant response rating, Goosegrass ([18]; 16 g ai/ha): 30
- Plant response rating, Goosegrass ([18]; 31 g ai/ha): 50
- Plant response rating, Goosegrass ([18]; 62 g ai/ha): 90
- Plant response rating, Goosegrass ([18]; 125 g ai/ha): 100
- Plant response rating, Beggarticks ([19]; 16 g ai/ha): 0
- Plant response rating, Beggarticks ([19]; 31 g ai/ha): 0
- Plant response rating, Beggarticks ([19]; 62 g ai/ha): 0
- Plant response rating, Beggarticks ([19]; 125 g ai/ha): 35
